Measurements published in PubChem BioAssay (NCI).
“And” between values parts separate entries of the source, which are not always exact repeats. Equal entries are not always repeated.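 In this assay, cells in 96-well plates receive the compound at five concentrations for 48 hours. Endpoints are linearly interpolated between the surrounding concentrations. GI50: concentration for 50% inhibition of growth. TGI: concentration producing complete growth inhibition.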

Columns and labels:
Experiment in all cases: inhibition of tumour cell growth, NCI panel, 48 h
A549 NSCLC = tested on: A549 NSCLC
HL-60(TB) leukemia = tested on: HL-60(TB) leukemia
SR leukemia = tested on: SR leukemia
OVCAR-8 ovarian = tested on: OVCAR-8 ovarian
HCC-2998 colon = tested on: HCC-2998 colon
SK-MEL-28 melanoma = tested on: SK-MEL-28 melanoma
KM12 colon = tested on: KM12 colon
HCT-15 colon = tested on: HCT-15 colon
HCT-116 colon = tested on: HCT-116 colon
LOX IMVI melanoma = tested on: LOX IMVI melanoma

Compound | GI50 (A549 NSCLC) | TGI (A549 NSCLC) | GI50 (HL-60(TB) leukemia) | TGI (HL-60(TB) leukemia) | GI50 (SR leukemia) | TGI (SR leukemia) | GI50 (OVCAR-8 ovarian) | TGI (OVCAR-8 ovarian) | GI50 (HCC-2998 colon) | TGI (HCC-2998 colon) | GI50 (SK-MEL-28 melanoma) | TGI (SK-MEL-28 melanoma) | GI50 (KM12 colon) | TGI (KM12 colon) | GI50 (HCT-15 colon) | TGI (HCT-15 colon) | GI50 (HCT-116 colon) | TGI (HCT-116 colon) | TGI (LOX IMVI melanoma) | GI50 (LOX IMVI melanoma)
Oc1ccc(-c2nc(-c3ccc4oc5ccc(-c6[nH]c(-c7ccc(O)cc7)nc6-c6ccccc6)cc5c4c3)c(-c3ccccc3)[nH]2)cc1 | 4.26 µM | 25.5 µM | 2.79 µM | 8.09 µM | 1.98 µM | 5.17 µM | 2.23 µM | 5.32 µM | 3.12 µM | 9.69 µM | 7.39 µM | 40 µM | 2.88 µM | 7.92 µM | 3.68 µM | 29.1 µM | 3.85 µM | > 100 µM | – | –
O=S(O)CCCSSCCCCSSCCCS(=O)O | – | > 100 µM | – | – | – | – | – | > 100 µM | – | > 100 µM | – | > 100 µM | – | > 100 µM | – | > 100 µM | – | > 100 µM | > 100 µM | –
O=C(Nc1cccc(Cl)c1)c1cc2cc(N=Nc3ccc(Br)cc3)ccc2oc1=O | – | > 100 µM | – | – | – | – | – | > 100 µM | – | 88.7 µM | – | > 100 µM | – | 76 µM | – | > 100 µM | – | > 100 µM | 45.1 µM | –
CC(C)(O)C1CC(=O)C(C)(C2C(O)CC3(C)C4CC=C5C(CCC(O)C5(C)C)C4(C)C(=O)CC23C)O1 (stereo unspecified) | – | > 100 µM | – | – | – | – | – | > 100 µM | – | > 100 µM | – | > 100 µM | – | > 100 µM | – | > 100 µM | – | > 100 µM | > 100 µM | –
O=C1c2cccc3cc4ccccc4c(c23)C(=O)N1CCCNCCNCCCN1C(=O)c2cccc3cc4ccccc4c(c23)C1=O | – | 0.373 µM | – | 8.28 µM | – | 1.51 µM | – | 0.337 µM | – | 1.71 µM | – | – | – | 1.29 µM | – | 1.36 µM | – | 0.168 µM | – | –
C[CH2][Ge]1([CH2]C)[CH2]CC2(CCN(CCCN(C)C)C2)C[CH2]1 | 1.44 µM and 2.35 µM | 2.93 µM and 4.47 µM | 0.312 µM and 1.21 µM | 1.61 µM and 1.79 µM | 0.231 µM | 1.25 µM | 1.7 µM and 1.25 µM | 4.05 µM and 1.73 µM | 0.21 µM and 1.68 µM | 0.543 µM and 3.8 µM | 1.34 µM and 1.79 µM | 2.71 µM and 3.27 µM | 1.83 µM and 10.2 µM | 4.02 µM and 22.2 µM | 1.07 µM and 1.51 µM | 2.74 µM and 2.65 µM | 1.45 µM | 2.79 µM and 1 µM | – | –
CCCC1C2=C(C(=O)OC2=O)C2C(CC)CC3=C(C(=O)OC3=O)C12 (stereo unspecified) | – | > 100 µM | – | > 100 µM | – | > 100 µM | – | > 100 µM | – | – | – | > 100 µM | – | > 100 µM | – | > 100 µM | – | > 100 µM | > 100 µM | –
Cc1ccc(S(=O)(=O)c2ccccn2)cc1 | – | > 100 µM | – | > 100 µM | – | – | – | > 100 µM | – | > 100 µM | – | > 100 µM | – | > 100 µM | – | > 100 µM | – | > 100 µM | > 100 µM | –
O=C(Cc1nc2ccccc2s1)C(=O)Nc1ccccc1C(F)(F)F | – | > 100 µM | – | > 100 µM | – | – | – | > 100 µM | – | > 100 µM | – | > 100 µM | – | > 100 µM | – | > 100 µM | – | > 100 µM | > 100 µM | –
Cc1ccc(S(=O)(=O)NC2(C=O)CCC(C(C)(C)C)CC2)cc1 (stereo unspecified) | – | > 100 µM | – | 42.9 µM | – | 36.9 µM | – | > 100 µM | – | > 100 µM | – | – | – | 84.5 µM | – | > 100 µM | – | 68.8 µM | – | –
Cc1ccc(S(=O)(=O)NC(CCCCN)C(=O)CCl)cc1 (stereo unspecified) | > 100 µM | > 100 µM | – | – | – | – | > 100 µM | > 100 µM | 37.4 µM | > 100 µM | > 100 µM | > 100 µM | 55.9 µM | > 100 µM | 72.4 µM | > 100 µM | 90.7 µM | > 100 µM | > 100 µM | 45.4 µM
Cn1c(N)c(N=Nc2ccc(S(N)(=O)=O)cc2)c(=O)n(C)c1=O | – | > 100 µM | – | > 100 µM | – | > 100 µM | – | > 100 µM | – | – | – | > 100 µM | – | > 100 µM | – | > 100 µM | – | > 100 µM | > 100 µM | –
Cc1ccc(SCN2CCCCC2)cc1 (tested in a mixture with another compound) | – | 72.8 µM | – | 4.98 µM | – | 25.6 µM | – | > 100 µM | – | – | – | 29.7 µM | – | 26.5 µM | – | 32 µM | – | 23.4 µM | 14.3 µM | –
COc1ccc2nccc(C3OC(=O)N4CCC(=O)CC34)c2c1 (stereo unspecified) | – | > 100 µM | – | > 100 µM | – | > 100 µM | – | > 100 µM | – | – | – | > 100 µM | – | > 100 µM | – | > 100 µM | – | > 100 µM | > 100 µM | –
CN(C)CCCn1c2c(c3ccc([N+](=O)[O-])cc3c1=O)C(=O)c1ccccc1-2 | 17.5 µM | 46.1 µM | – | – | 1.98 µM | > 100 µM | 17 µM | 49.4 µM | 15.3 µM | 41.7 µM | > 100 µM | > 100 µM | 28.4 µM | > 100 µM | 10.6 µM | 35.8 µM | 6.48 µM | 21.8 µM | 13.3 µM | 2.87 µM
CCc1cccc(C(C)C)c1C1C(=O)C(=O)N(c2nc3ccccc3s2)C(=O)C1=O | – | > 100 µM | – | > 100 µM | – | > 100 µM | – | – | – | > 100 µM | – | > 100 µM | – | > 100 µM | – | > 100 µM | – | > 100 µM | > 100 µM | –
O=c1c2ccccc2nc(-c2ccccc2Cl)n1NC1OC(CO)C(O)C(O)C1O (stereo unspecified) | – | > 100 µM | – | > 100 µM | – | – | – | > 100 µM | – | > 100 µM | – | > 100 µM | – | > 100 µM | – | > 100 µM | – | > 100 µM | – | –
S=C(N/N=C/c1ccccc1)NC1CC(c2ccccc2)Oc2ccccc21 (stereo unspecified) | – | > 100 µM | – | – | – | > 100 µM | – | > 100 µM | – | > 100 µM | – | > 100 µM | – | > 100 µM | – | – | – | > 100 µM | > 100 µM | –
O=C1OC2C(O)COC2(OCc2c[nH]c3ccccc23)C1O (stereo unspecified) (tested in a mixture with another compound) | – | > 100 µM | – | > 100 µM | – | > 100 µM | – | > 100 µM | – | – | – | – | – | > 100 µM | – | > 100 µM | – | > 100 µM | > 100 µM | –
COc1ccc(/C=C(\NC(=O)c2ccccc2)c2nc3ccccc3[nH]2)cc1 | – | > 100 µM | – | – | – | 89.8 µM | – | > 100 µM | – | > 100 µM | – | 37.5 µM | – | > 100 µM | – | > 100 µM | – | > 100 µM | – | –
COC(=O)c1c(OC(=O)c2ccccc2)noc1CC(=O)OC1C=CCCC1 (stereo unspecified) | – | > 100 µM | – | > 100 µM | – | > 100 µM | – | > 100 µM | – | > 100 µM | – | > 100 µM | – | > 100 µM | – | > 100 µM | – | > 100 µM | – | –
COc1cc(C2C(C(=O)Nc3ccc(Cl)c(Cl)c3)=C(C)NC(C)=C2C(=O)Nc2ccc(Cl)c(Cl)c2)ccc1O | – | 31.5 µM | – | 23.3 µM | – | – | – | 40.3 µM | – | 23.5 µM | – | 27.3 µM | – | 27 µM | – | – | – | – | 33.9 µM | –
